Literature values as cited in patent USRE31980E, “Olefinic derivatives of amino acids” (Merrell Toraude et Compagnie, priority 1983, dated 1985).

Experiments:
[1] = system: γ-aminobutyric acid transaminase
[2] = system: brain level of γ-aminobutyric acid; details: in vivo

Row | Compound | inhibition of γ-aminobutyric acid transaminase (kind of inhibition), literature [1] | duration of the reversible effect (elevated brain levels of γ-aminobutyric acid), literature [2]
1 | CCCC(CCC)C(=O)O [n-dipropylacetate] | competitively inhibiting | about 2 hours
2 | NCC#CC(=O)O [4-aminotetrolic acid] | competitive reversible inhibitor | –
